Patent US11396517B1, “Exo-aza spiro inhibitors of menin-MLL interaction” (Janssen Pharmaceutica NV, priority 2017, dated 2022)
Like-named read-outs stand apart in the source and are kept apart here.

Assays:
[1] = biological target: T1, menin (Homo sapiens, UniProt O00255, T541A); test: Menin/MLL homogenous time-resolved fluorescence (HTRF) assay; type: binding
T1 construct: Menin (a.a. 1-610-6×his tag)
T1 sequence (O00255 with tags, fused parts or gaps T541A): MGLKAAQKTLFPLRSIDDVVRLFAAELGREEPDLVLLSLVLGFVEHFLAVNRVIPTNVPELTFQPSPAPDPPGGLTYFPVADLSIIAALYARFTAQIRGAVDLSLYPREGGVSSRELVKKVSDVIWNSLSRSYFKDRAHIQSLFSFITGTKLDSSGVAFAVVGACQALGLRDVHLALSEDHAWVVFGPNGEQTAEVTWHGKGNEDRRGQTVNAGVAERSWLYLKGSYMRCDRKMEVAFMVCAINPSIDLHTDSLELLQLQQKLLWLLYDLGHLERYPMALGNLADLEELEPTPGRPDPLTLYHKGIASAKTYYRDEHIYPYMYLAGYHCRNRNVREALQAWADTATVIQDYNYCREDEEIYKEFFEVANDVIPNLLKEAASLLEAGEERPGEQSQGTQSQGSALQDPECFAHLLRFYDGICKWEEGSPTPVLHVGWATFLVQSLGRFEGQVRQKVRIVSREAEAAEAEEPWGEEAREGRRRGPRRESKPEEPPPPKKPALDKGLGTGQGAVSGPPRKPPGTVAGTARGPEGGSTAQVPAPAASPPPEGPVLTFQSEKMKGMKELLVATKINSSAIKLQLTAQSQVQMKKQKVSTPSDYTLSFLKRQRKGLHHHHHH
How it was run: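 Displacement of 75 nM FITC-MBM1 from terbium-cryptate-labeled His-tagged menin 1-610 ([…]) was read as the 520/490 nm HTRF ratio. Compound (11-point, 3-fold series) got 5 min with menin before peptide, then 15 min at ambient; 0.5% DMSO, Tris pH 7.5.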

[2] = system: MV-4-11; test: Proliferation assay A (spheroid assay) MV-4-11; type: cell-based, human; conditions: MV-4-11 cells, 8 d, AUC of confluence against time, absolute IC50, read-out: (3a) Spheroid assay MV-4-11 (IC50(μM)) Assay A
Procedure: 3a) Proliferation Assay A
The anti-proliferative effect of menin/MLL protein/protein interaction inhibitor test compounds was assessed in human leukemia cell lines. The cell lines MV-4-11 and MOLM14 harbor MILL translocations and express the MILL fusion proteins MLL-AF4 and MLL-AF9, respectively, as well as the wildtype protein from the second allele. […] K562 was used as a control cell line containing two MLL wildtype alleles in order to exclude compounds that display general cytotoxic effects.
MV-4-11 and MOLM14 were cultured in RPMI-1640 (Sigma Aldrich) supplemented with 10% fetal bovine serum (HyClone), 2 mM L-glutamine (Sigma Aldrich) and 50 μg/ml gentamycin (Gibco). K562 were propagated in RPMI-1640 (Sigma Aldrich) supplemented with 20% fetal bovine serum (HyClone), 2 mM L-glutamine (Sigma Aldrich) and 50 μg/ml gentamycin (Gibco).
In order to assess the anti-proliferative effects, 1,500 MV-4-11, 300 MOLM14 or 750 K562 cells were seeded in 200 μl media per well in 96-well round bottom, ultra-low attachment plates (Costar, catalogue number 7007). Cell seeding numbers were chosen based on growth curves to ensure linear growth throughout the experiment. Test compounds were added at different concentrations and the DMSO content was normalized to 0.3%. Cells were incubated for 8 d at 37° C. and 5% CO2. Spheroid like growth was monitored in real-time by live-cell imaging (IncuCyteZOOM, Essenbio, 4× objective) acquiring one image every four hours for 8 d. Confluence (%) as a measure of spheroid size was determined using an integrated analysis tool.
In order to determine the cumulative effect of the test compounds over time, the area under the curve (AUC) in a plot of confluence against time was calculated. Confluence at the beginning of the experiment (t=0) was used as baseline for the AUC calculation.
Absolute IC50 values were calculated according to the following procedure: % Control=(AUC sample/AUC control)*100
AUC control mean AUC of control values (cells without compound/DMSO as vehicle control)
A non-linear curve fit was applied using the least squares (ordinary) fit method to the plot of % control versus compound concentration. Based on this, the absolute IC50 value (half maximal inhibitory concentration of the test compound causing an anti-proliferative effect of 50% relative to the vehicle control) was calculated.

[3] = system: MOLM14; test: Proliferation assay B (spheroid assay) MOLM14; type: cell-based, human; conditions: MOLM14 cells, confluence at day 8, absolute IC50, read-out: (3b) Spheroid assay MOLM14 (IC50(μM)) Assay B
How it was run: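 IC50 derived from % effect on day-8 imaged confluence, scaled between DMSO-treated cells (high) and 1 μM staurosporine (low), using a variable-slope fit constrained 0-100%. Cells seeded as spheroids in ultra-low-attachment plates and exposed to compound for 8 days, 0.3% DMSO.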

[4] = location 2, read-out: (2) location 2 Menin HTRF assay (IC50 (nM))
[5] = location 1, read-out: (2) location 1 Menin HTRF assay (IC50 (nM))

| SMILES | IC50 [1, 4] | IC50 ([2]; Homo sapiens, MV4-11, 192 h) | IC50 ([3]; Homo sapiens, MOLM-14, 192 h) | other results |
| --- | --- | --- | --- | --- |
| O=c1[nH]c2ccc(NC3CC4(CCN(c5ncnc6sc(CC(F)(F)F)cc56)C4)C3)cc2[nH]1 (single isomer, unassigned) [Compound 321] | 915 nM |  |  | IC50 [2]: > 3.75 µM |
| CS(=O)(=O)Nc1ccc(C(=O)NC2CC3(CCN(c4ncnc5sc(CC(F)(F)F)cc45)C3)C2)cc1 (centres unmarked) [Compound 27] | 585 nM | 11.9 µM |  |  |
| CNc1nc(N2CCC3(CC(Nc4ccccc4)C3)C2)c2cc(CC(F)(F)F)sc2n1 (single isomer, unassigned) [Compound 269] | 78.6 nM | > 3.75 µM |  |  |
| O=C1Cc2ccc(NC3CCC4(C3)CN(c3ncnc5sc(CC(F)(F)F)cc35)C4)cc2N1 (centres unmarked) [Compound 292] | 81.3 nM | > 3.75 µM |  |  |
| FC(F)(F)Cc1cc2c(N3CC4(CCC(Nc5ccc(-c6cn[nH]c6)cc5)C4)C3)ncnc2s1 (centres unmarked) [Compound 302] | 509 nM | 2.56 µM |  |  |
| FC(F)(F)Cc1cc2c(N3CC[C@]4(CC[C@@H](NCc5ccccc5)C4)C3)ncnc2s1 (single isomer, unassigned) [Compound 5] | 63.8 nM |  |  | IC50 [1, 5]: 304 nM; IC50 [2]: 1.69 µM |
| CNc1nc(N2CCC3(CC(Nc4ccc5[nH]c(=O)[nH]c5c4)C3)C2)c2cc(CC(F)(F)F)sc2n1 (mixture of isomers) [Compound 393] | 68.3 nM | 2.6 µM |  |  |
| CN(CC1CC2(CCN(c3ncnc4sc(CC(F)(F)F)cc34)C2)C1)c1ccccc1 (centres unmarked) [Compound 41] | 339 nM | 10 µM |  |  |
| N#CCc1ccc(NC2CC3(CCN(c4nc(N)nc5sc(CC(F)(F)F)cc45)C3)C2)cc1 (single isomer, unassigned) [Compound 378] | 42.9 nM | > 3.75 µM |  |  |
| CS(=O)(=O)N1CCN(CCNC(=O)c2ccc(NC3CC4(CCN(c5ncnc6sc(CC(F)(F)F)cc56)C4)C3)cc2)CC1 (single isomer, unassigned) [Compound 189] | 143 nM |  | > 3.75 µM |  |
| CN(C)CCNC(=O)c1ccc(NC2CC3(CCN(c4ncnc5sc(CC(F)(F)F)cc45)C3)C2)c(F)c1 (single isomer, unassigned) [Compound 242] | 74.6 nM |  |  | IC50 [3]: > 3.75 µM |
| CS(=O)(=O)N1CCN(CCn2c(=O)[nH]c3cc(NC4CC5(CCN(c6ncnc7sc(CC(F)(F)F)cc67)C5)C4)ccc32)CC1 (mixture of isomers) [Compound 222] | 418 nM |  | > 3.75 µM |  |
| O=c1[nH]c2ccc(NCC3CC4(CCN(c5ncnc6sc(CC(F)(F)F)cc56)C4)C3)cc2[nH]1 (mixture of isomers) [Compound 198] | 141 nM |  | > 3.75 µM |  |
| NC(=O)Cn1c(=O)[nH]c2cc(NC3CC4(CCN(c5ncnc6sc(CC(F)(F)F)cc56)C4)C3)ccc21 (single isomer, unassigned) [Compound 360] | 448 nM |  |  | IC50 [3]: > 3.75 µM |

Continued by falling IC50 [1, 4], values first:

| IC50 [1, 4] | IC50 ([2]; Homo sapiens, MV4-11, 192 h) | IC50 ([3]; Homo sapiens, MOLM-14, 192 h) | SMILES | other results |
| --- | --- | --- | --- | --- |
| 58.7 nM |  | > 3.75 µM | O=C(NCCO)c1ccc(NC2CC3(CCN(c4ncnc5sc(CC(F)(F)F)cc45)C3)C2)cc1 (centres unmarked) [Compound 83] |  |
| 51.9 nM | > 3.75 µM |  | CNS(=O)(=O)c1ccc(N[C@H]2CCC3(C2)CN(c2ncnc4sc(CC(F)(F)F)cc24)C3)cc1 (single isomer, unassigned) [Compound 291] |  |
| 46 nM |  | 2.1 µM | CN(C(=O)c1ccc(NC2CC3(CCN(c4ncnc5sc(CC(F)(F)F)cc45)C3)C2)cc1)S(C)(=O)=O (single isomer, unassigned) [Compound 363] | IC50 [1, 5]: 44.1 nM |
| 41.6 nM | 3.71 µM |  | O=c1[nH]c2ccc(NC3CC4(CCN(c5ncnc6sc(CC(F)(F)F)cc56)C4)C3)cc2[nH]1 (single isomer, unassigned) [Compound 320] |  |
| 27.8 nM | 2.73 µM |  | Cn1c(=O)[nH]c2cc(NC3CC4(CCN(c5ncnc6sc(CC(F)(F)F)cc56)C4)C3)ccc21 (centres unmarked) [Compound 89] |  |
| 27.2 nM |  |  | Nc1nc(N2CCC3(CC(Nc4ccc5[nH]c(=O)oc5c4)C3)C2)c2cc(CC(F)(F)F)sc2n1 (single isomer, unassigned) [Compound 385] | IC50 [2]: > 3.75 µM |
| 19.6 nM | 1.26 µM |  | CC(=O)Nc1ccc(NC2CC3(CCN(c4ncnc5sc(CC(F)(F)F)cc45)C3)C2)cc1 (mixture of isomers) [Compound 330] |  |
| 19.3 nM |  | > 3.75 µM | CS(=O)(=O)N1CCN(CCn2c(=O)oc3ccc(CNC4CC5(CCN(c6ncnc7sc(CC(F)(F)F)cc67)C5)C4)cc32)CC1 (mixture of isomers) [Compound 349] |  |
| 18.2 nM | 2.13 µM |  | N#CCc1ccc(NC2CC3(CCN(c4ncnc5sc(CC(F)(F)F)cc45)C3)C2)cc1Cl (single isomer, unassigned) [Compound 211] |  |
| 17.3 nM |  | > 3.75 µM | FC(F)(F)Cc1cc2c(N3CC4(CC[C@H](Nc5ccc(-c6cn[nH]c6)cc5)C4)C3)ncnc2s1 (single isomer, unassigned) [Compound 304] |  |
| 13.8 nM |  | > 3.75 µM | CNc1nc(N2CCC3(CC(Nc4ccc5[nH]c(=O)[nH]c5c4)C3)C2)c2cc(CC(F)(F)F)sc2n1 (single isomer, unassigned) [Compound 394] |  |
| 7.9 nM |  | 1.22 µM | CC(NC(=O)c1ccc(NC2CC3(CCN(c4ncnc5sc(CC(F)(F)F)cc45)C3)C2)cc1)C1CCN(S(C)(=O)=O)CC1 (mixture of isomers) [Compound 191] |  |
| 5.3 nM | 0.48 µM |  | FC(F)(F)Cc1cc2c(N3CCC4(CC(Nc5ccc(-c6cc[nH]n6)cc5)C4)C3)ncnc2s1 (centres unmarked) [Compound 92] |  |
| 4.8 nM |  | > 3.75 µM | CS(=O)(=O)c1ccc(NC2CC3(CCN(c4ncnc5sc(CC(F)(F)F)cc45)C3)C2)cc1 (mixture of isomers) [Compound 342] |  |
| 4.2 nM |  | 0.46 µM | CC(CN(C)C)NC(=O)c1ccc(NC2CC3(CCN(c4ncnc5sc(CC(F)(F)F)cc45)C3)C2)cc1 (mixture of isomers) [Compound 193] |  |
| 2.8 nM |  | 2.39 µM | CNC(=O)c1ccc(NC2CC3(CCN(c4ncnc5sc(CC(F)(F)F)cc45)C3)C2)cc1F (centres unmarked) [Compound 203] |  |
| 2.2 nM |  | 1.02 µM | CNC(=O)c1ccc(NC2CC3(CCN(c4ncnc5sc(CC(F)(F)F)cc45)C3)C2)cc1F (single isomer, unassigned) [Compound 205] |  |
| 1.6 nM |  | 1.29 µM | CNC(=O)c1ccc(N[C@@H]2CC[C@@]3(CCN(c4ncnc5sc(CC(F)(F)F)cc45)C3)C2)cc1 (stereo in doubt) [Compound 134] |  |
| 0.9 nM |  |  | CNC(=O)c1cc(F)c(NC2CC3(CCN(c4ncnc5sc(CC(F)(F)F)cc45)C3)C2)c(F)c1 (single isomer, unassigned) [Compound 229] | IC50 [3]: 1 µM |
